This note sets out measurements from patent US7326788B2, “Quinolinone derivatives as inhibitors of c-fms kinase” (Janssen Pharmaceutica N.V., priority 2003, dated 2008).

Broadly, the IC50 is the concentration that inhibits the measured activity by half.

This experiment deals with T1, c-fms (Homo sapiens, UniProt P07333).
T1 construct: 3DP
The experiment can be described thus: c-fms autophosphorylation, fluorescence polarization competition immunoassay. The class given is biochemical. To be noted: 10 nM c-fms, 1 mM ATP, 5 mM MgCl2, 2% DMSO; averages of three independent measurements. How it is done:
The assay was performed in black 96-well microplates (LJL BioSystems). The assay buffer used was 100 mM HEPES, pH 7.5, 1 mM DTT, 0.01% (v/v) Tween-20. Compounds were diluted in assay buffer containing 4% DMSO just prior to the assay. […] The kinase reaction was initiated by adding 2 μL of 5 mM ATP (Sigma) in assay buffer. The final concentrations in the assay were 10 nM c-fms, 1 mM ATP, 5 mM MgCl2, 2% DMSO. Control reactions were ran in each plate: in positive and negative control wells, assay buffer (made 4% in DMSO) was substituted for the compound; in addition, positive control wells received 1.2 μL of 50 mM EDTA.
The plates were incubated at room temperature for 45 min. At the end of the incubation, the reaction was quenched with 1.2 μL of 50 mM EDTA (EDTA was not added to the positive control wells at this point; see above). Following a 5-min incubation, each well received 10 μL of a 1:1:3 mixture of anti-phosphotyrosine antibody, 10X, PTK green tracer, 10X (vortexed), FP dilution buffer, respectively (all from PanVera, cat. #P2837). The plate was covered, incubated for 30 min at room temperature and the fluorescence polarization was read on the Analyst. The instrument settings were: 485 nm excitation filter; 530 nm emission filter; Z height: middle of well; G factor: 0.93. […] The reported IC50 values are averages of three independent measurements.

Bounds are passed on as bounds.

T1 sequence (P07333 20-972): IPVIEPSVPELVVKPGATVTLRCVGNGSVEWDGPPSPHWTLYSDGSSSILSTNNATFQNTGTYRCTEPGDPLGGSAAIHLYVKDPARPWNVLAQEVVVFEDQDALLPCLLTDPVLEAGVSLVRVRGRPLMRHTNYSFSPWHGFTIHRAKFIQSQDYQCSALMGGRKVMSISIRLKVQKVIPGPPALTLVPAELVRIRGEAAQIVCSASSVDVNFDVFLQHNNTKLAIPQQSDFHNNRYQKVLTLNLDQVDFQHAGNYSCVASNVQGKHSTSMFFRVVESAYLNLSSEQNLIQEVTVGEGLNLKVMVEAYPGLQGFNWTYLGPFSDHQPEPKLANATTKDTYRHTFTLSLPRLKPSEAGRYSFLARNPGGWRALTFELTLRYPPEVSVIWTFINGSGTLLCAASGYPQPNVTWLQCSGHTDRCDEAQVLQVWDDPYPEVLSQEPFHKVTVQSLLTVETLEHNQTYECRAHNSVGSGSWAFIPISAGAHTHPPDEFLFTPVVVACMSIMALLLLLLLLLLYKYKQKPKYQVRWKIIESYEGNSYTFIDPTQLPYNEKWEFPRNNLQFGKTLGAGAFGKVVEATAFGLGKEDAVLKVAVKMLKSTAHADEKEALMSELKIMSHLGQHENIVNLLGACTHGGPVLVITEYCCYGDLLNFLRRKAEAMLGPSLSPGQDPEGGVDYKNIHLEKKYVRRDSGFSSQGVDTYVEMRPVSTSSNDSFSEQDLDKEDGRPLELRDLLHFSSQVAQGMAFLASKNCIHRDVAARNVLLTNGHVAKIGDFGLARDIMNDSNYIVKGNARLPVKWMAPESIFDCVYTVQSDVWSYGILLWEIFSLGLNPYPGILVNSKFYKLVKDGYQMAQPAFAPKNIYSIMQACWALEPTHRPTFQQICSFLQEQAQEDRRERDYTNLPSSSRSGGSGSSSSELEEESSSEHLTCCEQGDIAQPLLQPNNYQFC

`Cc1cc(-c2c(-c3ccccc3)c3cc(Br)ccc3[nH]c2=O)on1` registered an IC50 of under 500 nM.

As to `CCc1ccc(-c2c(-c3cnc[nH]3)c(=O)[nH]c3ccc(C#N)cc23)cc1`, the IC50 is under 500 nM. For `CCc1ccc(-c2c(-c3cc(C)no3)c(=O)[nH]c3ccc(C#N)cc23)cc1`, the IC50 was under 500 nM. On to `Cc1cc(-c2c(-c3ccc(C(C)C)cc3)c3cc(C#N)ccc3[nH]c2=O)on1`, for which the half-maximal inhibitory concentration (IC50) is under 500 nM. As for `C=Cc1ccc(-c2c(-c3cc(C)no3)c(=O)[nH]c3ccc(C#N)cc23)cc1`, the figure is under 500 nM; as for `Cc1cc(-c2c(C3=CCCCCC3)c3cc(C#N)ccc3[nH]c2=O)on1`, under 500 nM; as for `CC(C)(C)c1cc(-c2c(-c3ccccc3)c3cc(Cl)ccc3[nH]c2=O)on1`, under 500 nM. With `Cc1cc(-c2c(-c3cccc(O)c3)c3cc(Cl)ccc3[nH]c2=O)on1`, the IC50 was under 500 nM.

As to `Cc1cc(-c2c(-c3ccccc3F)c3cc(Cl)ccc3[nH]c2=O)on1`, the IC50 was under 500 nM. For the molecule `O=C(O)c1cc(-c2c(-c3ccccc3)c3cc(Cl)ccc3[nH]c2=O)on1`, the IC50 was under 500 nM. The molecule `Cc1cc(-c2c(-c3cccs3)c3cc(Cl)ccc3[nH]c2=O)on1` displayed an IC50 of under 500 nM.

Consider `Cc1cc(-c2c(N3CCCCC3)c3cc(Cl)ccc3[nH]c2=O)on1`, for which the IC50 is under 500 nM. Molecule `O=c1[nH]c2ccc(Br)cc2c(-c2ccccc2)c1-c1cnc[nH]1` had an IC50 of under 500 nM. With `Cc1cc(-c2c(-c3cc4ccccc4s3)c3cc(Cl)ccc3[nH]c2=O)on1` the figure was 500 to 1000 nM; with `Cc1cc(-c2c(N3CCC(C)(C)CC3)c3cc(Cl)ccc3[nH]c2=O)on1`, 500 to 1000 nM. In the case of `Cc1cc(-c2c(-c3ccc(OC(F)(F)F)cc3)c3cc(C#N)ccc3[nH]c2=O)on1`, the IC50 was in the range of 500 to 1000 nM. In turn, `COc1cccc(-c2c(-c3cc(C)no3)c(=O)[nH]c3ccc(Cl)cc23)c1` showed a half-maximal inhibitory concentration (IC50) of 500 to 1000 nM. As for `O=c1[nH]c2ccc(Cl)cc2c(-c2ccccc2)c1-c1cc(CCc2ccccc2)no1`, the IC50 was in the range of 1000 to 10000 nM. Molecule `CC(=O)Nc1cc(-c2c(-c3ccccc3)c3cc(Cl)ccc3[nH]c2=O)on1` showed an IC50 of 1000 to 10000 nM.

In turn, `Cc1cc(-c2c(-c3cccnc3)c3cc(Cl)ccc3[nH]c2=O)on1` had an IC50 of 1000 to 10000 nM.

`Cc1cc(-c2c(-c3ccccn3)c3cc(Cl)ccc3[nH]c2=O)on1` yielded an IC50 of 1000 to 10000 nM. As for `Cc1cc(-c2c(-c3cc4ccccc4o3)c3cc(Cl)ccc3[nH]c2=O)on1`, the figure is 1000 to 10000 nM; as for `Cc1cc(-c2c(-c3ccc4ccccc4c3)c3cc(Cl)ccc3[nH]c2=O)on1`, 1000 to 10000 nM. Take `O=c1[nH]c2ccc(Cl)cc2c(-c2ccccc2)c1-c1cncc(Br)c1`: the IC50 fell in the range of 1000 to 10000 nM. In turn, `O=c1[nH]c2ccc(Cl)cc2c(-c2ccccc2)c1-c1ccccn1` had a half-inhibitory concentration (IC50) of 1000 to 10000 nM. The molecule `O=c1[nH]c2ccc(Cl)cc2c(-c2ccccc2)c1-c1nc2ccccc2[nH]1` returned an IC50 of 1000 to 10000 nM. In turn, `O=c1[nH]c2ccc(Cl)cc2c(-c2ccccc2)c1-c1cccnc1` had an IC50 of 1000 to 10000 nM. The molecule `Cc1cc(-c2c(-c3ccccc3)c3cc(O)ccc3[nH]c2=O)on1` came in with an IC50 of 1000 to 10000 nM. `Cc1cc(-c2c(-c3ccccc3)c3cc(C(O)CO)ccc3[nH]c2=O)on1` (stereo not shown): the IC50 was over 10000 nM. On to `Cc1cc(-c2c(-c3ccccc3)c3ccc(Cl)cc3[nH]c2=O)on1`, for which the IC50 was over 10000 nM. In the case of `CCOC(=O)c1cccc(-c2c(-c3ccccc3)c3cc(Cl)ccc3[nH]c2=O)c1`, the IC50 was over 10000 nM. With `Cc1cc(-c2c(-c3ccccc3)c3cccc(Cl)c3[nH]c2=O)on1` the figure was over 10000 nM; with `O=c1[nH]c2ccc(Cl)cc2c(-c2ccccc2)c1-c1nnn[nH]1`, over 10000 nM; with `Cc1cc(-c2c(-c3ccccc3)c3cc(CO)ccc3[nH]c2=O)on1`, over 10000 nM. The molecule `Cc1cc(-c2c(-c3ccccc3)c3cc(C(=O)O)ccc3[nH]c2=O)on1` gave an IC50 of 1000 to 10000 nM. Regarding `O=c1[nH]c2ccc(Cl)cc2c(-c2ccccc2)c1-c1cn(Cc2ccccc2)nn1`, the half-maximal inhibitory concentration (IC50) fell in the range of 500 to 1000 nM. As for `CC(C)Cc1coc(-c2c(-c3ccccc3)c3cc(Cl)ccc3[nH]c2=O)n1`, the figure is over 10000 nM.
